From patent US9034922B2, “Composition for maintaining function of platelets” (THE UNIVERSITY OF TOKYO, priority 2010, dated 2015) come the findings set out here.

The target in data set [1] is T1, Matrix metalloproteinase 17 (MMP-17) (Homo sapiens, UniProt Q9ULZ9).
T1 construct: purchased Calbiochem 475940
T1 sequence (Q9ULZ9 126-298 limits assumed): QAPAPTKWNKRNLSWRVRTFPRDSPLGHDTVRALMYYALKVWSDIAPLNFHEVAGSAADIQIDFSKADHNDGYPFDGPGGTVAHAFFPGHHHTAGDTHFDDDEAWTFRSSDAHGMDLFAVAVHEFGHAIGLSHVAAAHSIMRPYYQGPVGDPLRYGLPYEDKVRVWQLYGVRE
Description: Enzyme inhibition experiment, MMP-17. To be noted: 3163 substrate, 25° C., 5 hours. It counts as biochemical. As for the experimental part:
Matrix metalloproteinase 17 (MMP-17) (manufactured by Calbiochem, product number: 475940)
(§1) 3168 substrate (MOCAc-Arg-Pro-Lys-Pro-Val-Glu-Nva-Trp-Arg-Lys(Dnp)-NH2, manufactured by Peptide Institute, Inc.): excitation wavelength at 320 nm, emission wavelength at 405 nm, and 3163 substrate (MOCAc-Pro-Leu-Gly-Leu-A2pr(Dnp)-Ala-Arg-NH2, manufactured by Peptide Institute, Inc.): excitation wavelength at 320 nm, emission wavelength at 405 nm.
(§2) The enzyme reaction was carried out using the enzymes and substrates. Specifically, if necessary, the enzyme was activated in advance with APMA (final concentration 1 mmol/L, p-aminophenylmercuric acetate, manufactured by Sigma-Aldrich Co., A9563) according to information from the manufacturer. Then, in a 96-well plate for fluorescence measurement, 90 μL of an enzyme solution prepared with Assay Buffer A (50 mmol/L Tris-HCl buffer (pH 7.5) containing 200 mmol/L sodium chloride, 5 mmol/L calcium chloride, 10 μmol/L zinc sulfate, and 2 mg/mL bovine serum albumin) was mixed with 90 μL of the substrate adjusted to be 20 μmol/L with Assay Buffer B (50 mmol/L Tris-HCl buffer (pH 7.5) containing 200 mmol/L sodium chloride, 5 mmol/L calcium chloride, 10 μmol/L zinc sulfate, and 0.05% PLURONIC F-68), and incubated for reaction at 25° C. or 37° C. for several hours. Moreover, the fluorescence intensities before and after the reaction were measured using a fluorometer to determine the enzyme activity. An inhibition rate was obtained based on the enzyme activities in the presence and absence of the test substances, and the 50% inhibitory concentration (IC50) was calculated.

The subject of data set [2] is ES cell-derived platelets (ADAM17-mediated GPIbα shedding). Kind of data set: Function-maintaining effect on ES cell-derived platelets in culture system (flow cytometry CD41/CD42b, platelet count). On the technique in general: A flow cytometer gives signals particle by particle.
Description: As human ES cells (hES cells), a KhES cell line (KhES-3) established by and provided from Institute for Frontier Medical Sciences, Kyoto University was used.
The human ES cells or the human iPS cells were seeded on the feeder cells such that the cell count was 5×10^4 to 1×10^5/10-cm dish. The cells were cultured in Iscove's Modified Dulbecco's Medium (IMDM, manufactured by Invitrogen Corp/GIBCO) supplemented with 15% FBS (product name: CELLect™ GOLD, manufactured by ICN Biomedicals Inc.), 2 mM L-glut amine (manufactured by Invitrogen Corp.), ITS supplement (10 μg/ml insulin, 5.5 mg/ml human transferrin, 5 ng/ml sodium selenite) (manufactured by Sigma-Aldrich Co.), 50 μg/ml ascorbic acid (Sigma-Aldrich Co.), 0.45 mM α-monothioglycerol (MTG, manufactured by Sigma-Aldrich Co.), and 20 ng/ml vascular endothelial growth factor (VEGF, manufactured by R&D Systems, Inc.). Further, this culturing was carried out at 37° C. in 5% CO2 and 21% O2 (atmospheric oxygen) using a CO2 incubator (product name: HERA CELL 150i, manufactured by Thermo Fisher Scientific K. K.). Then, the medium was replaced every 3 days, and the culturing was continued under the conditions until Day 15 when a large number of sac structures (sac-like structures) containing hematopoietic progenitor cells therein were observed.
Next, after detached from the dish, the sac structures were disrupted and suspended in a 3% FBS-containing phosphate buffer solution (PBS). Then, the suspension was passed through a 40-μm cell strainer (manufactured by BD). The solution thus passed through was centrifuged at 440×g for 10 minutes to collect hematopoietic progenitor cells, and the cells was counted. The hematopoietic progenitor cells were seeded on 10T1/2 cells newly prepared in a 6-well plate (6×10^5 cells/plate) exposed to 50-Gy radiation such that the number of the hematopoietic progenitor cells was 2 to 3×10^4/well. The hematopoietic progenitor cells were further cultured for 8 days in IMDM (manufactured by Invitrogen Corp/GIBCO) supplemented with 15% FBS (product name: CELLect™ GOLD, manufactured by ICN Biomedicals Inc.), 2 mM L-glutamine (manufactured by Invitrogen Corp.), ITS supplement (10 μg/ml insulin, 5.5 mg/ml transferrin, 5 ng/ml sodium selenite) (manufactured by Sigma-Aldrich Co.), 50 μg/ml ascorbic acid (manufactured by Sigma-Aldrich Co.), 0.45 mM MTG (manufactured by Sigma-Aldrich Co.), 100 ng/ml human thrombopoietin (human TPO, manufactured by PeproTech, Inc.), 50 ng/ml human stem cell factor (SCF, manufactured by PeproTech, Inc.), and 25 U/ml heparin. Thereby, megakaryocytes/platelets were induced.
Subsequently, the induced megakaryocytes/platelets were collected with an anticoagulant solution (Acid Citrate Dextrose, ACD), followed by centrifugation at 900 rpm for 10 minutes without a break. The supernatant obtained by the centrifugation was further centrifuged at 1500 rpm for 10 minutes without a break to remove the supernatant. Thereafter, the numbers of megakaryocytes and platelets in the precipitate thus obtained were analyzed by flow cytometry using antibodies for staining.
Note that, in the flow cytometry, FACS Aria manufactured by Becton, Dickinson and Company was used. As the antibodies used to stain the megakaryocytes and the platelets, used were a Phycoerythrin (PE)-modified anti-human CD42a (GPIX) antibody, a PE-modified anti-human CD42b (GPIbα) antibody, and an allophycocyanin (APC)-labelled anti-CD41a (integrin αIIbbeta3 complex, HIP8 clone) antibody (manufactured by BD Bioscience). Additionally, in order to accurately measure the absolute numbers of the megakaryocytes and the platelets, the cells were stained with these antibodies, and the analysis was conducted by flow cytometry using TruCount beads (manufactured by BD Bioscience), also.
A further data set has as its target T2, ADAM17 (Homo sapiens, UniProt P78536).
T2 construct: made in house; host or cells: mammalian cells or insect cells
Description: ADAM17 inhibition experiment (fluorescent synthetic substrate). Format: biochemical. How it is done:
The cDNA was incorporated into an expression vector. Then, this vector was transfected into mammalian cells or insect cells, and ADAM17 was expressed and obtained.
Next, the activity of ADAM17 was measured, as follows in the presence or absence of the test substances, in which obtained ADAM17 was used as an enzyme, and a fluorescent synthetic substrate Nma (N-methyl anthranilate)-[…]Dnp (dinitrophenyl)-D-Arg-NH2 containing an ADAM17-cleavage sequence of membrane-bound TNF was used as a substrate.
Specifically, 90 μL of 14 units of an enzyme solution (1 unit is defined as an amount of enzyme degrading […] of the substrate in 1 minute at 25° C.) prepared with Assay Buffer A (50 mmol/L Tris-HCl buffer (pH 7.5) containing 200 mmol/L sodium chloride, 5 mmol/L calcium chloride, 10 μmol/L zinc sulfate, and 2 mg/mL bovine serum albumin) was mixed with 90 μL of the fluorescent synthetic substrate adjusted to be 20 μmol/L with Assay Buffer B (50 mmol/L Tris-HCl buffer (pH 7.5) containing 200 mmol/L sodium chloride, 5 mmol/L calcium chloride, 10 μmol/L zinc sulfate, and 0.05% PLURONIC F-68), and allowed for reaction at 37° C. for 1.5 hours. Thereafter, the enzyme activity was determined by measurement using a fluorometer (Fluoroskan Ascent) under conditions of an excitation wavelength of 355 nm and a measurement wavelength of 460 nm. Then, an inhibition rate was obtained based on the enzyme activities in the presence and absence of the test compounds, and the 50% inhibitory concentration (IC50) was calculated.
A disintegrin and metalloproteinase 17 (ADAM17, TACE) (used was one prepared at Kaken Pharmaceutical Co., Ltd. by employing the genetic recombination in the same way as in Test Example 3. Note that, the same as in Test Example 3, 1 unit is defined as an amount of enzyme degrading 1 pmol of substrate in 1 minute at 25° C.)
(§3) TACE substrate (the same as one used in Test Example 3): excitation wavelength at 355 nm, emission wavelength at 460 nm
as §2

Data set [3] deals with T3, Matrix metalloproteinase 14 (MMP-14) (Homo sapiens, UniProt P50281).
T3 construct: purchased Calbiochem 475935
Kind of data set: Enzyme inhibition experiment, MMP-14. Format: biochemical. To be noted: 444221 substrate, 37° C., 5 hours. How it is done: Matrix metalloproteinase 14 (MMP-14) (manufactured by Calbiochem, product number: 475935)
444221 substrate (DNP-Pro-Cha-Gly-Cys(Me)-His-Ala-Lys(Nma)-NH2, custom synthesis): excitation wavelength at 355 nm, emission wavelength at 460 nm
as §2

Data set [4] addresses T4, Matrix metalloproteinase 3 (MMP-3) (Homo sapiens, UniProt P08254).
T4 construct: purchased Calbiochem 444217
Description: Enzyme inhibition experiment, MMP-3. To be noted: 3168 substrate, 37° C., 4 hours. It counts as biochemical. As for the experimental part:
Matrix metalloproteinase 3 (MMP-3) (manufactured by Calbiochem, product number: 444217)
as §1, §2

Data set [5] deals with T5, A disintegrin and metalloproteinase 10 (ADAM10) (Homo sapiens, UniProt O14672).
T5 construct: purchased Funakoshi Co., Ltd. 936-AD-020
T5 sequence (O14672 214-672 limits assumed): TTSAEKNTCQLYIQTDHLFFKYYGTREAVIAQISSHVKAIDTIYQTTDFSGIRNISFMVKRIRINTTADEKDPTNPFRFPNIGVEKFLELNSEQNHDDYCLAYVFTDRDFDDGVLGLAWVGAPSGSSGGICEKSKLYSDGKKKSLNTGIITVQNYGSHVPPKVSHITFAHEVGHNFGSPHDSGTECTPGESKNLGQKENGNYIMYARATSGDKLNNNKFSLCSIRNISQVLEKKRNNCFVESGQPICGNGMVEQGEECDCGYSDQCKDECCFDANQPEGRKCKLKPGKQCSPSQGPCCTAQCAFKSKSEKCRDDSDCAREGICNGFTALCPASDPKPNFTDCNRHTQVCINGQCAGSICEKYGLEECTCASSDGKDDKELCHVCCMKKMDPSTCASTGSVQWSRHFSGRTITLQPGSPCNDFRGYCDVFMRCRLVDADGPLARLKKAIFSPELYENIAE
Description: Enzyme inhibition experiment, ADAM10. Format: biochemical. To be noted: TACE substrate, 25° C., 5 hours. How it is done:
A disintegrin and metalloproteinase 10 (ADAM10) (manufactured by Funakoshi Co., Ltd., product code: 936-AD-020) and
as §3, §2

Data set [6] deals with T6, Matrix metalloproteinase 13 (MMP-13) (Homo sapiens, UniProt P45452).
T6 construct: purchased Chemicon CC068
Kind of data set: Enzyme inhibition experiment, MMP-13. It counts as biochemical. To be noted: 444221 substrate, 37° C., 4 hours. How it is done: Matrix metalloproteinase 13 (MMP-13) (manufactured by Chemicon, product number: CC068)
as §2, with “activity.” for “activity. An inhibition rate was obtained based on the enzyme activities in the presence and absence of the test substances, and the 50% inhibitory concentration (IC50) was calculated.”

T2 sequence (P78536 215-824): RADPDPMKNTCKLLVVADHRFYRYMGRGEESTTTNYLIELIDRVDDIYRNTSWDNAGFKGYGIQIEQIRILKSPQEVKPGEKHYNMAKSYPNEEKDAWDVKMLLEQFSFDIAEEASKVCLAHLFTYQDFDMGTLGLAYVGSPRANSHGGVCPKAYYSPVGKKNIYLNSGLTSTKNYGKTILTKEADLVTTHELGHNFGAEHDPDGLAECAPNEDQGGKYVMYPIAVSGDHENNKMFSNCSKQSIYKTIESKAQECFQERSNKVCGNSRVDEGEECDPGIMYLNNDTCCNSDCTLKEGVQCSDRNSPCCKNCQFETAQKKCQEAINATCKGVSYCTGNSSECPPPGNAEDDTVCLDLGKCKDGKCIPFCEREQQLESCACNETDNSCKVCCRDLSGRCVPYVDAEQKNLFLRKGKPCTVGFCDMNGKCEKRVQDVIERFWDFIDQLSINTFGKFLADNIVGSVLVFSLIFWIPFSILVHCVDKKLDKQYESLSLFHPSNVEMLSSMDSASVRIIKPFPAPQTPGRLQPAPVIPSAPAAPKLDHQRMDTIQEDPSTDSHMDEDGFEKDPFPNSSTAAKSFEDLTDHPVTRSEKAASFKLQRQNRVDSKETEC
T4 sequence (P08254 100-272 limits assumed): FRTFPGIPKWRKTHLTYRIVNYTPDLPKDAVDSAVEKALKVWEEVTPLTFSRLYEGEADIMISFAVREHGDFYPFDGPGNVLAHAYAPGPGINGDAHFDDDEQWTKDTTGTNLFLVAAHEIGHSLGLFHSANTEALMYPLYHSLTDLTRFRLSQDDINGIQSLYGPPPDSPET

In the case of `CNC(=O)[C@H](Cc1c[nH]c2ccccc12)NC(=O)[C@@H](CC(=O)NO)CC(C)C` [GM6001, reference compound], the IC50 (usually the concentration that gives 50% inhibition) turned out to be 3 nM in data set [1]; 310 nM on ADAM17; 1.6 nM in data set [3]; 32 nM in data set [4]; 0.26 nM in data set [6]. For the same compound, the cytotoxicity result in data set [2] (Test Example 5, 50 μM, 8-day addition) is on record as “had cytotoxicity”. In addition, the “number of platelets obtained” value in data set [2] (Test Example 5, 8-day addition, 50 μM GM6001 vs 5 μM S-45282) is “fewer platelets than 5 μM S-45282”; in data set [2] (Test Example 5, added for 2 days, 50 μM GM6001, 5 μM S-45282), “approximately the same”. Moreover, the “inhibition of ADAM17-mediated GPIbα shedding (CD42b(+) percentage)” value in data set [2] (Test Example 5, added for 2 days or 8 days, GM6001 50 μM, S-45282 5 μM or 50 μM) was “inhibit ADAM17-mediated GPIbα shedding”. Further, the “inhibition of ADAM17-mediated GPIbα shedding” value in data set [2] (Test Example 6, 8 days, S-45457 5 μM or 50 μM, GM6001 50 μM) is reported as “inhibits ADAM17-mediated GPIbα shedding”. Besides, at ADAM17, the “inhibitory activity on ADAM17 enzyme (in words)” value is on record as “weak”. In addition, the “specificity to ADAM17 in comparison with metalloproteinases other than ADAM17” value on ADAM17 (from Table 3) is “non-specifically and strongly inhibited metalloproteinases”. In data set [5], the “IC50 ADAM10” value was found to be 410 nM.
